Patent publication US12233161B1, “Lipids and lipid nanoparticle formulations” (LONGUIDE BIOPHARMA CORPORATION, priority 2024, dated 2025)

Columns and labels:
[1] = Particle size and PDI of nucleic acid lipid nanoparticle preparations by dynamic light scattering; type: physicochemical
Procedure, shortened: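 Size read by DLS after diluting the LNP preparation (approx. 0.04 mg/mL mRNA) in ultrapure water with gentle pipette mixing. The same sample, recovered and diluted further with water, was then used for zeta potential measurement.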

[2] = test system: mice; test: In vivo delivery of FLuc-mRNA lipid nanoparticles in mice, in vivo imaging (IVIS); conditions: for IVIS: Fluc-mRNA
Procedure, shortened: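 Mice (n=3) received about 75 μL FLuc-mRNA LNP per mouse intramuscularly (rectus femoris), intravenously (tail vein), intraperitoneally or subcutaneously (back). After injection, D-luciferin (200 μL, 15 mg/mL) was given i.p. 10-15 min before IVIS imaging.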

[3] = Potential characterization of nucleic acid lipid nanoparticle preparations; type: physicochemical
Protocol: 20 μL of the nucleic acid lipid nanoparticle solution (containing about 0.04 mg/mL mRNA) was taken and added with 780 μL of ultrapure water, used a pipette tip to gently blow and mix, and the potential of the nanopreparation was detected by Malvern particle sizer (model ZEN3700).
27.5 μL nucleic acid lipid nanoparticle solution (containing about 0.04 mg/mL mRNA) was taken and added with 200 μL ultrapure water. A pipette tip was used to gently blow the sample and mix well. The particle size of the nanopreparation was detected by Malvern Dynamic Light Scattering Instrument (Malvern Instruments Ltd., ZEN3700, UK). After the detection, the sample was recovered to an EP tube, and 600 μL of ultrapure water was added, gently blown with a pipette tip, and the potential of the nanopreparation was measured by a Malvern particle size meter.

[4] = DMG-PEG2000:DSPC:Chol:compound 1.40:11.15:38.95:48.50, N/P 30
[5] = IM, DMG-PEG2000:DSPC:Chol:compound 1.40:11.15:38.95:48.50, N/P 30
[6] = DMG-PEG2000:DSPC:Chol:compound 1.00:10.00:33.00:56.00, N/P 42
[7] = IV, body, DMG-PEG2000:DSPC:Chol:compound 1.00:10.00:33.00:56.00, N/P 42
[8] = IV, body, DMG-PEG2000:DSPC:Chol:compound 1.40:11.15:38.95:48.50, N/P 30
[9] = IV, liver, DMG-PEG2000:DSPC:Chol:compound 1.00:10.00:33.00:56.00, N/P 42
[10] = IV, liver, DMG-PEG2000:DSPC:Chol:compound 1.40:11.15:38.95:48.50, N/P 30
[11] = IV, lung, DMG-PEG2000:DSPC:Chol:compound 1.00:10.00:33.00:56.00, N/P 42
[12] = IV, lung, DMG-PEG2000:DSPC:Chol:compound 1.40:11.15:38.95:48.50, N/P 30
[13] = IV, spleen, DMG-PEG2000:DSPC:Chol:compound 1.00:10.00:33.00:56.00, N/P 42
[14] = IV, spleen, DMG-PEG2000:DSPC:Chol:compound 1.40:11.15:38.95:48.50, N/P 30
[15] = DMG-PEG2000:DSPC:Chol:compound 1.40:11.15:38.95:48.50, N/P 20
[16] = DMG-PEG2000:DSPC:Chol:compound 1.40:11.15:38.95:48.50, N/P 40
[17] = IM, DMG-PEG2000:DSPC:Chol:compound 1.40:11.15:38.95:48.50, N/P 40
[18] = IV, body, DMG-PEG2000:DSPC:Chol:compound 1.40:11.15:38.95:48.50, N/P 40
[19] = IV, liver, DMG-PEG2000:DSPC:Chol:compound 1.40:11.15:38.95:48.50, N/P 40
[20] = IV, lung, DMG-PEG2000:DSPC:Chol:compound 1.40:11.15:38.95:48.50, N/P 40
[21] = IV, spleen, DMG-PEG2000:DSPC:Chol:compound 1.40:11.15:38.95:48.50, N/P 40
[22] = DMG-PEG2000:DSPC:Chol:compound 1.00:10.00:33.00:56.00, N/P 35.5
[23] = IV, liver, DMG-PEG2000:DSPC:Chol:compound 1.00:10.00:33.00:56.00, N/P 35.5
[24] = IV, lung, DMG-PEG2000:DSPC:Chol:compound 1.00:10.00:33.00:56.00, N/P 35.5
[25] = IV, spleen, DMG-PEG2000:DSPC:Chol:compound 1.00:10.00:33.00:56.00, N/P 35.5

PDI [1, 4]	Particle size (nm) [1, 4] [nm]	Zeta potential (mV) [3, 4] [mV]	Structure (SMILES)	IVIS [2, 5]	IVIS [2, 8]	% of organ targeting [2, 10] [%]	IVIS [2, 10]	% of organ targeting [2, 12] [%]	IVIS [2, 12]	% of organ targeting [2, 14] [%]	IVIS [2, 14]	other results
0.17	89.51	15.97	CCCCCCCCCCCCNC(=O)C(O)CNCCN(C)CCN(CC(O)C(=O)NCCCCCCCCCCCC)CC(O)C(=O)NCCCCCCCCCCCC (stereo not drawn) [Compound L0290]	3.06E+05	–	–	–	–	–	–	–	IVIS ([2]; IV, organ not given, DMG-PEG2000:DSPC:Chol:compound 1.40:11.15:38.95:48.50, N/P 30): 1.18E+06
0.17	259.67	15.07	CCCCCCC(CCCCCC)C(=O)OCCCCCCOC(=O)C(O)CN(C)CCN(C)CCN(C)CC(O)C(=O)OCCCCCCOC(=O)C(CCCCCC)CCCCCC (stereo not drawn) [Compound L0291]	1.87E+07	1.83E+07	61.07	3.30E+06	3.97	2.14E+05	34.97	1.89E+06	PDI [1, 6]: 0.13; Particle size (nm) [1, 6]: 221.70 nm; IVIS [2, 7]: 2.60E+07; % of organ targeting [2, 9]: 5.08%; IVIS [2, 9]: 1.32E+06; % of organ targeting [2, 11]: 5.76%; IVIS [2, 11]: 1.50E+06; % of organ targeting [2, 13]: 89.17%; IVIS [2, 13]: 2.32E+07
0.22	151.20	13.33	CCCCCCCCC(CCCCCC)C(=O)OCCCCCCOC(=O)C(O)CN(C)CCN(C)CCN(C)CC(O)C(=O)OCCCCCCOC(=O)C(CCCCCC)CCCCCCCC (stereo not drawn) [Compound L0292]	1.05E+05	9.82E+06	25.18	3.22E+06	16.03	2.05E+06	58.80	7.53E+06	–
0.13	129.13	9.23	CCCCCCC(CCCCCC)C(=O)OCCCCOC(=O)C(O)CN(CCCN(C)CCCN(CC(O)C(=O)OCCCCOC(=O)C(CCCCCC)CCCCCC)CC(O)C(=O)OCCCCOC(=O)C(CCCCCC)CCCCCC)CC(O)C(=O)OCCCCOC(=O)C(CCCCCC)CCCCCC (stereo not drawn) [Compound L0294]	3.81E+07	3.72E+08	38.21	5.13E+07	7.55	1.01E+07	54.25	7.28E+07	–
0.10	135.33	10.63	CCCCCCCCC(CCCCCC)C(=O)OCCCCCCOC(=O)C(O)CN(CCCN(C)CCCN(CC(O)C(=O)OCCCCCCOC(=O)C(CCCCCC)CCCCCCCC)CC(O)C(=O)OCCCCCCOC(=O)C(CCCCCC)CCCCCCCC)CC(O)C(=O)OCCCCCCOC(=O)C(CCCCCC)CCCCCCCC (stereo not drawn) [Compound L0295]	5.87E+07	9.48E+07	33.17	2.38E+07	5.87	4.20E+06	60.96	4.37E+07	–
–	–	–	CCCCCCOC(C)OCCCCCCOC(=O)C(O)CN(C)CCN(C)CCN(C)CC(O)C(=O)OCCCCCCOC(C)OCCCCCC (stereo not drawn) [Compound L0300]	–	–	–	–	–	–	–	–	PDI [1, 15]: 0.13; Particle size (nm) [1, 15]: 157.77 nm; IVIS ([2]; IM, DMG-PEG2000:DSPC:Chol:compound 1.40:11.15:38.95:48.50, N/P 20): 1.09E+06; IVIS ([2]; IV, organ not given, DMG-PEG2000:DSPC:Chol:compound 1.40:11.15:38.95:48.50, N/P 20): 7.12E+05; Zeta potential (mV) [3, 15]: 5.14 mV
–	–	–	CCCCCCCCCCCCNC(=O)C(O)CN(CCCN(CCCN(CC(O)C(=O)NCCCCCCCCCCCC)CC(O)C(=O)NCCCCCCCCCCCC)CC(O)C[N+](C)(C)C)CC(O)C(=O)NCCCCCCCCCCCC (stereo not drawn) [Compound L0302]	–	–	–	–	–	–	–	–	PDI [1, 16]: 0.21; Particle size (nm) [1, 16]: 132.07 nm; IVIS [2, 17]: 6.87E+05; IVIS [2, 18]: 4.41E+06; % of organ targeting [2, 19]: 1.31%; IVIS [2, 19]: 2.05E+05; % of organ targeting [2, 20]: 97.12%; IVIS [2, 20]: 1.52E+07; % of organ targeting [2, 21]: 1.57%; IVIS [2, 21]: 2.47E+05; Zeta potential (mV) [3, 16]: 16.93 mV
0.10	122.57	12.97	CCCCCCCCCCCCNCC(O)CN(CCCCCN(C)CCCCCN(CC(O)CNCCCCCCCCCCCC)CC(O)C(=O)NCCCCCCCCCCCC)CC(O)C(=O)NCCCCCCCCCCCC (stereo not drawn) [Compound L0303]	9.76E+05	1.33E+08	2.25	7.60E+06	96.16	3.25E+08	1.59	5.38E+06	PDI [1, 6]: 0.09; Particle size (nm) [1, 6]: 132.10 nm; IVIS [2, 7]: 2.40E+08; % of organ targeting [2, 9]: 0.64%; IVIS [2, 9]: 2.70E+06; % of organ targeting [2, 11]: 98.72%; IVIS [2, 11]: 4.17E+08; % of organ targeting [2, 13]: 0.64%; IVIS [2, 13]: 2.70E+06
–	–	–	CCCCCCCCCCNC(=O)C(O)CN(CCCN(CCCN(CCO)CCO)CCCN(CC(O)C(=O)NCCCCCCCCCC)CC(O)C(=O)NCCCCCCCCCC)CC(O)C(=O)NCCCCCCCCCC (stereo not drawn) [Compound L0304]	–	–	–	–	–	–	–	–	PDI [1, 22]: 0.15; Particle size (nm) [1, 22]: 121.27 nm; PDI [1, 16]: 0.14; Particle size (nm) [1, 16]: 101.73 nm; IVIS [2, 17]: 3.48E+05; IVIS ([2]; IV, body, DMG-PEG2000:DSPC:Chol:compound 1.00:10.00:33.00:56.00, N/P 35.5): 9.15E+06; IVIS [2, 18]: 1.29E+07; % of organ targeting [2, 23]: 2.63%; IVIS [2, 23]: 6.18E+05; % of organ targeting [2, 19]: 2.30%; IVIS [2, 19]: 7.31E+05; % of organ targeting [2, 24]: 90.44%; IVIS [2, 24]: 2.12E+07; % of organ targeting [2, 20]: 90.53%; IVIS [2, 20]: 2.87E+07; % of organ targeting [2, 25]: 6.93%; IVIS [2, 25]: 1.62E+06; % of organ targeting [2, 21]: 7.17%; IVIS [2, 21]: 2.27E+06; Zeta potential (mV) [3, 16]: 11.93 mV
